Here are results for four compounds from paper PMC6222509, “Dibasic Derivatives of Phenylcarbamic Acid against Mycobacterial Strains: Old Drugs and New Tricks?” (Molecules : A Journal of Synthetic Chemistry and Natural …, 2018).

In brackets after ≈: the same amount, converted by molar mass. Where two headings read alike, the source gives them in different places.

Data set [1] concerns M. avium CNCTC My 330/80 (identical with ATCC 25291; MA 330/80). In words: in vitro antimycobacterial MIC, dilution micromethod in Šula's semisynthetic medium. Conditions: Mycobacterium avium. Type of data set: cell-based, Mycobacterium avium.
For data set [2], the system named is M. smegmatis ATCC 700084 (MS). The data set can be described thus: in vitro antimycobacterial MIC, broth dilution micromethod in Middlebrook 7H9. Type of data set: cell-based, Mycobacterium smegmatis. Conditions: Mycolicibacterium smegmatis, ATCC700084, 72 h. In general terms: Broth dilution looks for growth in wells or tubes with falling amounts of substance.
For data set [3], the system named is M. marinum CAMP 5644 (MM). The description is as above. Type of data set: cell-based, Mycobacterium marinum. The conditions noted are these: Mycobacterium marinum, 504 h.
Data set [4] can be described thus: surface tension, drop count method, Traube stalagmometer. Conditions: aqueous solution c = 2.0 × 10^−3 M, 21 °C; water γ = 0.07259 N/m. Type of data set: physicochemical. How it is done:
Surface tension (relative surface activity; γ) of aqueous solutions of the compounds 1a–p (c = 2.0 × 10^−3 M) was determined by a drop count technique using a Traube stalagmometer. All evaluated substances were able to decrease surface tension of water (γ = 0.07259 N/m) at 21 °C.
Surface tension (relative surface activity; γ) of the derivatives 1a–p was determined by a drop count method using a glassy Traube stalagmometer (Kavalier Glass, Prague, Czech Republic). Number of drops of compounds’ and reference solutions were counted between upper and lower marks of the stalagmometer. Aqueous solutions of the molecules 1a–p were prepared with distilled, deionized water (c = 2.0 × 10^−3 M). […] The drops were allowed to form at constant temperature 21 °C. The experimental procedure was described in a paper. Current measurements were done in six replicates and average γ values (in N/m units) were reported (Table 1).

Data set [5] can be described thus: lipophilicity by isocratic RP-HPLC (log k, k, log kw, S). Type of data set: physicochemical. Conditions: for log kw: extrapolated to 100% water from log k versus ϕM; for S (slope): slope of log k versus ϕM regression. From the text: Octadecyl-functionalized silica gel was currently used as a stationary phase (SPh) and a […] of two solvents at different volume ratios modified retention properties of the SPh. Liquid binary mixtures of methanol (MeOH) with water were employed as mobile phases (MPhs) in the isocratic RP-HPLC. The MeOH modifier was preferred because of similarity of both observed and extrapolated lipophilicity parameters with the ones determined in the octan-1-ol/water partition system, considering also sensitivity to H-bond donor properties of investigated compounds [41].
The modifier was applied in different volume concentrations, which varied from […] (v/v) with 5% increments. This interval was chosen due to very high lipophilicity of investigated salts. Practically, lower volume concentration of MeOH, i.e., less than 85% (v/v) in used MPhs, caused uncertainty of retention times (tr) due to notable peaks broadening, especially within subsets 1i–l and 1m–p. […] The highest tr parameters were found for the molecules 1k (tr = 47.108 min) and 1l (tr = 70.012 min) in the MPh containing 85% proportion (v/v) of MeOH (Table 2).
According to the authors’ opinions based on systematic scientific literature survey, a current research paper was the first, which aimed the log kw parameters of 2-/3-alkoxyphenylcarbamic acid derivatives containing two centers of protonation. The log kw values were extrapolated from intercepts of a relationship between log k and volume fraction of the MPh modifier (ϕM) using the Snyder–Soczewiński linear solvent strength model. The relationship was justified by R > 0.9900, Adj. R^2 > 0.9750 as well as F > 180.00 for calculation of particular log kw parameters (Table 3).
The HPLC separation module Waters e2695 equipped with a Waters 2996 PDA Detector (Waters Corp., Milford, MA, USA) and chromatographic column Symmetry C18 × 5 μm, 4.6 × 250 mm, Part No. W21751W016 (Waters Corp.) were used for estimation of lipophilic properties of the compounds 1a–p at 21 °C.
Isocratic elution was carried out using mobile phases consisting of methanol p.a. (MeOH; Honeywell, Paris, France) and purified water in various volume ratios (80:20, 85:15, 90:10, 95:5 (v/v) and pure MeOH, respectively). Distilled water (CentralChem, Bratislava, Slovak Republic) was purified by the Aquinity2 P10 ultra-pure water system for production of ultra-pure water with an integrated 10 L permeate tank (membraPure, Hennigsdorf, Germany).
Total flow of the column was 1.0 mL/min, injection volume was 4 μL and column temperature was set to 40 °C. The detection wavelengths varying from 236 nm to 238 nm were chosen for current experimental procedures.
Lipophilicity of the compounds 1a–p was determined by reversed-phase high-performance liquid chromatography (RP-HPLC). Methanol (MeOH)/water mobile phases with varying volume ratio of the organic modifier and water (80:20, 85:15, 90:10, 95:5 (v/v) and pure MeOH, respectively) were chosen.
A methanolic solution of potassium iodine was used for dead time (td) determination. Retention factors (capacity factors; k) were calculated according to Equation (17):k = (tr− td)/td(17) where tr was retention time of a solute (in min), the td parameter denoted dead time of potassium iodine, an unretained analyte (in min).
The observed retention (tr) and dead (td) times were means of three independent determinations. Average td values of potassium iodine in used MPhs were as follows: 2.237 min (MeOH/water ratio (v/v) was 80:20), 2.245 min (85:15), 2.245 min (90:10), 2.228 min (95:5) and 2.210 min (pure MeOH), respectively. […]

The mark [6] stands for this setting: ATCC25291, 336 h, read-out: MIC MA 330/80 14-d.
[7] abbreviates: ATCC25291, 504 h, read-out: MIC MA 330/80 21-d.
Where [8] appears, read: read-out: MIC MS 3-d, 3-day cultivation, 37 °C.
The mark [9] stands for this setting: read-out: MIC MM 21-d, 21-day cultivation, 28 °C.
[10] abbreviates: mobile phase MeOH/water 80:20 (v/v).
[11] abbreviates: mobile phase MeOH/water 85:15 (v/v).
[12] abbreviates: mobile phase MeOH/water 90:10 (v/v).
Setting [13] is: mobile phase MeOH/water 95:5 (v/v).

For the compound `CCCCCCCOc1ccccc1NC(=O)OC(CN(CCC)CCC)CN1CCCC1.Cl.Cl` (centres unmarked) [1d, 1-[2-[({[2-(heptyl-oxy)phenyl]amino}carbonyl)oxy]-3-(dipropylammonio)propyl]pyrrolidinium dichloride], the MIC in data set [1] (setting [6]) stood at 32 µM; in data set [1] (setting [7]), 32 µM; in data set [2] (setting [8]), 24.9 µM; in data set [3] (setting [9]), 12.5 µM. In addition, in data set [4], the “surface tension γ (relative surface activity)” value was determined as 0.05985 N/m. Besides, the log kw in data set [5] is 4.9487. The “k (retention factor)” value in data set [5] (setting [10]) was 12.8588; in data set [5] (setting [11]), 7.7304; in data set [5] (setting [12]), 5.0373; in data set [5] (setting [13]) it was 2.5421; in data set [5] (mobile phase pure MeOH) it was 1.4365. Also, the log k worked out at 1.1092 in data set [5] (setting [10]); 0.8882 in data set [5] (setting [11]); 0.7022 in data set [5] (setting [12]); 0.4052 in data set [5] (setting [13]); 0.1573 in data set [5] (mobile phase pure MeOH). Also, in data set [5], the “S (slope)” value is listed as 4.7736.

With `CCCCCCOc1ccccc1NC(=O)OC(CN(CCC)CCC)CN1CCCCCC1` (centres unmarked) [1k], the MIC in data set [1] (ATCC25291, 336 h, 14-day cultivation, read-out: MIC MA 330/80 14-d) is 32 µM (≈ 15.2 µg/mL); in data set [1] (ATCC25291, 504 h, 21-day cultivation, read-out: MIC MA 330/80 21-d), 62.5 µM (≈ 29.7 µg/mL); in data set [2] (3-day cultivation, 37 °C, read-out: MIC MS 3-d), 390 µM (≈ 186 µg/mL); in data set [3] (21-day cultivation, 28 °C, read-out: MIC MM 21-d) it was 98 µM (≈ 46.6 µg/mL). Also, the “surface tension γ (relative surface activity)” value in data set [4] is recorded as 0.06065 N/m. Further, in data set [5], the log kw was 5.2359. The “k (retention factor)” value in data set [5] (setting [10]) amounted to 20.0586; in data set [5] (setting [11]), 11.0255; in data set [5] (setting [12]), 6.3650; in data set [5] (setting [13]), 3.3274; in data set [5] (mobile phase pure MeOH), 2.1394. Besides, the log k was found to be 1.3023 in data set [5] (setting [10]); 1.0424 in data set [5] (setting [11]); 0.8038 in data set [5] (setting [12]); 0.5221 in data set [5] (setting [13]); 0.3303 in data set [5] (mobile phase pure MeOH). Moreover, the “S (slope)” value in data set [5] turned out to be 4.9286.

`CCCCCOc1cccc(NC(=O)OC(CN(CCC)CCC)CN2CCCC2)c1.Cl.Cl` (centres unmarked) [1f, 1-[2-[({[3-(pentyloxy)phenyl]amino}carbonyl)oxy]-3-(dipropylammonio)propyl]-pyrrolidinium dichloride]: the MIC in data set [1] (setting [6]) is 32 µM; in data set [1] (setting [7]), 32 µM; in data set [2] (setting [8]), 15.8 µM; in data set [3] (setting [9]), less than 3.9 µM. In data set [4], the “surface tension γ (relative surface activity)” value was 0.06285 N/m. The log kw in data set [5] is reported as 4.6722. For the same compound, the “k (retention factor)” value in data set [5] (setting [10]) was 4.5436; in data set [5] (setting [11]) it was 3.0981; in data set [5] (setting [12]), 1.7972; in data set [5] (setting [13]), 0.8052; in data set [5] (mobile phase pure MeOH), 0.5113. Moreover, the log k in data set [5] (setting [10]) is given as 0.6574; in data set [5] (setting [11]), 0.4911; in data set [5] (setting [12]) it was 0.2546; in data set [5] (setting [13]), −0.0941; in data set [5] (mobile phase pure MeOH), −0.2913. Also, the “S (slope)” value in data set [5] stood at 4.9652.

In the case of `CCCCCOc1cccc(NC(=O)OC(CN(CCC)CCC)CN2CCCCCC2)c1.Cl.Cl` (centres unmarked) [1n, 1-[2-[({[3-(pentyloxy)phenyl]amino}carbonyl)oxy]-3-(di-propylammonio)propyl]azepanium dichloride], the MIC in data set [1] (setting [6]) is 16 µM; in data set [1] (setting [7]) it was 16 µM; in data set [2] (setting [8]), 15 µM; in data set [3] (setting [9]), 15 µM. Moreover, the “surface tension γ (relative surface activity)” value in data set [4] is 0.06154 N/m. In data set [5], the log kw is 5.2087. Also, the “k (retention factor)” value in data set [5] (setting [10]) is given as 8.9166; in data set [5] (setting [11]) it was 4.5102; in data set [5] (setting [12]) it was 2.6333; in data set [5] (setting [13]), 1.2419; in data set [5] (mobile phase pure MeOH) it was 0.7858. In addition, the log k in data set [5] (setting [10]) is 0.9502; in data set [5] (setting [11]), 0.6542; in data set [5] (setting [12]), 0.4205; in data set [5] (setting [13]) it was 0.0941; in data set [5] (mobile phase pure MeOH) it was −0.1047. Also, the “S (slope)” value in data set [5] came to 5.3398.
